Data as given in patent US20230138395A1, “PHARMACEUTICAL COMPOSITIONS OF A THERAPEUTIC POLYENE MACROLIDE AND METHODS OF THEIR USE” (priority 2020, published 2023).
In brackets after ≈: the same amount, converted by molar mass. Several values for one entry are separate records, joined by “and”; a condition that tells them apart may be missing. Equal values may be shown once.

What was measured:
[1] = system: individual Aspergillus spp. (Table 12, species not named); experiment: MFC determination, Table 12; format: cell-based; settings: Aspergillus sp. of Table 12
C. parapsilosis = experiment: MIC testing (CLSI M27-A3); format: cell-based; set-up: MIC: unit not given beside the values
Paecilomyces strains = experiment: MFC determination; format: cell-based, Paecilomyces spp.; settings: Paecilomyces strains (5)
[2] = system: all Aspergillus strains tested; experiment: MIC testing (CLSI M38-A2), summary; format: cell-based; settings: caspofungin read as MEC
all Candida strains = experiment: MIC testing (CLSI M27-A3), summary; format: cell-based
C. tropicalis [3] = experiment: MIC testing (CLSI M27-A3); format: cell-based
C. albicans SC5314 = experiment: In vitro activity (MFC) against the infecting strain, Example 18; format: cell-based, Candida albicans; settings: Candida albicans, read-out: MFC
[4] = system: individual Aspergillus spp. (Table 13, species not given); experiment: MIC testing (CLSI M38-A2), Table 13; format: cell-based; settings: Aspergillus sp. of Table 13, caspofungin read as MEC
C. tropicalis [5] = experiment: MFC determination; format: cell-based
Fusarium strains [6] = experiment: MIC testing (CLSI M38-A2), Table 17; format: cell-based, Fusarium spp.; settings: Fusarium strains (Table 17)
[7] = system: individual Aspergillus spp. (Table 12, species not named); experiment: MIC testing (CLSI M38-A2), Table 12; format: cell-based; settings: Aspergillus sp. of Table 12, caspofungin read as MEC
C. glabrata strains [8] = experiment: MFC determination; format: cell-based; set-up: MFC: unit not given beside the values
C. glabrata strains [9] = experiment: MIC testing (CLSI M27-A3); format: cell-based; set-up: MIC: unit not given beside the values
[10] = system: individual Aspergillus spp. (Table 14, species not named); experiment: MFC determination, Table 14; format: cell-based; settings: Aspergillus sp. of Table 14
Cr. neoformans strains = experiment: MFC determination; format: cell-based, Cryptococcus neoformans
Fusarium strains [11] = experiment: MFC determination, Table 17; format: cell-based, Fusarium spp.; settings: Fusarium strains (Table 17)
[12] = C. tropicalis strains, in µg/mL

OC(Cn1cncn1)(Cn1cncn1)c1ccc(F)cc1F [Fluconazole, fluconazole]
MFC Range [1]: > 64 µg/mL | MFC50 ([1]; kills 50% of strains): > 64 µg/mL | MFC90 ([1]; kills 90% of strains): > 64 µg/mL | MIC50 (C. parapsilosis; C. parapsilosis, inhibits 50% of strains): 0.5 µg/mL (≈ 1.63 µM) | MIC90 (C. parapsilosis; C. parapsilosis, inhibits 90% of strains): 0.5 µg/mL (≈ 1.63 µM) | MIC (C. parapsilosis; individual C. parapsilosis strain with elevated MICs to non-polyene comparators (Table 22), listed as Flu, in µg/mL): 0.25 and 0.5 and 1 | MFC Range (Paecilomyces strains): > 64 µg/mL | MIC50 ([2]; inhibits 50% of strains): > 64 µg/mL | MIC90 ([2]; inhibits 90% of strains): > 64 µg/mL | MIC50 (all Candida strains; inhibits 50% of strains): 0.5 µg/mL (≈ 1.63 µM) | MIC90 (all Candida strains; inhibits 90% of strains): > 32 µg/mL | MIC Range (C. tropicalis [3]; [12]): 0.25-2 | MIC50 (C. tropicalis [3]; C. tropicalis, inhibits 50% of strains): 0.25 µg/mL (≈ 0.816 µM) | MIC90 (C. tropicalis [3]; C. tropicalis, inhibits 90% of strains): 0.5 µg/mL (≈ 1.63 µM) | MFC (C. albicans SC5314): > 64 µg/mL | MIC Range ([4]; in µg/mL): 64 | MIC50 ([4]; inhibits 50% of strains): 64 µg/mL (≈ 209 µM) | MIC90 ([4]; inhibits 90% of strains): 64 µg/mL (≈ 209 µM) | MFC Range (C. tropicalis [5]; [12]): >64 | MFC50 (C. tropicalis [5]; C. tropicalis, kills 50% of strains): > 64 µg/mL | MFC90 (C. tropicalis [5]; C. tropicalis, kills 90% of strains): > 64 µg/mL | MIC50 (Fusarium strains [6]; inhibits 50% of strains): > 64 µg/mL | MIC90 (Fusarium strains [6]; inhibits 90% of strains): > 64 µg/mL | MIC50 ([7]; inhibits 50% of strains): > 64 µg/mL | MIC90 ([7]; inhibits 90% of strains): > 64 µg/mL | MFC Range (C. glabrata strains [8]; C. glabrata strains, in µg/mL): >64 | MFC50 (C. glabrata strains [8]; C. glabrata, kills 50% of strains): > 64 µg/mL | MFC90 (C. glabrata strains [8]; C. glabrata, kills 90% of strains): > 64 µg/mL | MFC (C. glabrata strains [8]; individual C. glabrata strain with elevated MICs to non-polyene comparators (Table 22), in µg/mL): >64 | MIC50 (C. glabrata strains [9]; C. glabrata, inhibits 50% of strains): 8 µg/mL (≈ 26.1 µM) | MIC90 (C. glabrata strains [9]; C. glabrata, inhibits 90% of strains): > 64 µg/mL | MIC (C. glabrata strains [9]; individual C. glabrata strain with elevated MICs to non-polyene comparators (Table 22), listed as Flu): 32 and 2 and >64 (2×) and 8 and 64 | MFC Range [10]: > 64 µg/mL | MFC50 ([10]; kills 50% of strains): > 64 µg/mL | MFC90 ([10]; kills 90% of strains): > 64 µg/mL | MFC Range (Cr. neoformans strains; Cr. neoformans strains, in µg/mL): 2 | MFC50 (Cr. neoformans strains; Cr. neoformans, kills 50% of strains): > 64 µg/mL | MFC90 (Cr. neoformans strains; Cr. neoformans, kills 90% of strains): > 64 µg/mL | MFC Range (Fusarium strains [11]; in µg/mL): >64 | MFC50 (Fusarium strains [11]; kills 50% of strains): > 64 µg/mL | MFC90 (Fusarium strains [11]; kills 90% of strains): > 64 µg/mL
